Data taken from patent publication US20050208549A1, “Testing endosymbiont cellular organelles and compounds identifiable therewith” (priority 2000, published 2005).

What was measured:
Fibroblast cells = assay: NASBA ratio of mitochondrial DNA to chromosomal DNA in cultured fibroblast cells; type: cell-based; settings: culture period of four weeks, antiviral drugs at 3 μM and 30 μM
Procedure: (§1) In Table 1, the primers and probes used in the examples are summarized. Standard NASBA nucleic acid amplification reactions were performed in a 20 μl reaction volume and contained: 40 mM Tris-pH 8.5, 70 mM KCl, 12 mM MgCl2, 5 mM dithiothreitol, 1 mM dNTPs (each), 2 mM rNTPs (each), 0.2 μM primer (each), 0.05 μM molecular beacon, 375 mM sorbitol, 0.105 μg/μl bovine serum albumin, 6.4 units AMV RT, 32 units T7 RNA polymerase, 0.08 units RNAse H and input nucleic acid. The complete mixture, except the enzymes, sorbitol and/or bovine serum albumin was, prior to adding the enzyme mixture, heated to 65° C. for two minutes in order to denature any secondary structure in the RNA and to allow the primers to anneal. After cooling the mixture to 41° C., the enzymes were added. The amplification took place at 41° C. for 90 minutes in a fluorimeter (CytoFluor 2000) and the fluorescent signal was measured every minute (using the filter set 530/25 nm and 485/30 nm). […]
(§2) To achieve quantification, a dilution series of target sequences for a particular primer set was amplified and the time points at which the reactions became positive (the time to positivity, TTP) were plotted against the input amounts of nucleic acid. This way a calibration curve was created that could be used to read TTP values of reactions with unknown amounts of input and deduce the input amount. […]

[1] = tested on: peripheral blood mononuclear cells (PBMCs); assay: NASBA ratio of mitochondrial DNA to chromosomal DNA in cultured PBMCs; type: cell-based; settings: culture period of five days, 6 μM and 60 μM
Procedure: as §1, §2

Structure (SMILES): Cc1cn([C@H]2C[C@H](N=[N+]=[N-])[C@@H](CO)O2)c(=O)[nH]c1=O [AZT]
- change in mitochondrial DNA to chromosomal DNA ratio (Fibroblast cells): no measurable change
- change in ratio of mitochondrial DNA to chromosomal DNA [1]: no measurable change
